# Legend:
# [1] = target: T1, Orf2* (Actinoplanes teichomyceticus, UniProt A0A561VD00); experiment: Deacetylation catalytic specificity; assay type: biochemical; conditions: substrate of Orf2* (WT)
# [2] = tested on: MRSA ATCC 43300; experiment: MIC, broth microdilution; assay type: cell-based, Staphylococcus aureus; conditions: Staphylococcus aureus
# How it was run: (§1)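 Colonies from 18-24 h agar cultures were grown in broth to a 0.5 McFarland turbidity and adjusted to approximately 1×10^8 CFU mL^−1. Plates were incubated at 37° C for 18-24 h. MIC was taken as the lowest compound concentration with no visible growth.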
# [3] = tested on: MRSA ATCC 700698 hVISA; experiment: MIC, broth microdilution; assay type: cell-based, Staphylococcus aureus; conditions: Staphylococcus aureus
# How it was run: as §1
# [4] = tested on: MRSA ATCC 700787 VRSA; experiment: MIC, broth microdilution; assay type: cell-based, Staphylococcus aureus; conditions: Staphylococcus aureus
# How it was run: as §1
# [5] = tested on: MRSA ATCC 700789 VRSA; experiment: MIC, broth microdilution; assay type: cell-based, Staphylococcus aureus; conditions: Staphylococcus aureus
# How it was run: as §1
# [6] = tested on: MRSA ATCC BAA-38; experiment: MIC, broth microdilution; assay type: cell-based, Staphylococcus aureus; conditions: Staphylococcus aureus
# How it was run: as §1
# [7] = tested on: MRSA ATCC BAA-39; experiment: MIC, broth microdilution; assay type: cell-based, Staphylococcus aureus; conditions: Staphylococcus aureus
# How it was run: as §1
# [8] = tested on: MRSA ATCC BAA-44; experiment: MIC, broth microdilution; assay type: cell-based, Staphylococcus aureus; conditions: Staphylococcus aureus
# How it was run: as §1
# [9] = tested on: S. aureus ATCC 29213; experiment: MIC, broth microdilution; assay type: cell-based, Staphylococcus aureus; conditions: Staphylococcus aureus, ATCC29213
# How it was run: as §1
# [10] = tested on: E. faecalis ATCC 29302; experiment: MIC, broth microdilution; assay type: cell-based; conditions: Enterococcus faecalis, ATCC29302
# How it was run: as §1
# [11] = tested on: VRE ATCC 700221 (vanA); experiment: MIC, broth microdilution; assay type: cell-based, enterococci; conditions: Enterococcus
# How it was run: as §1
# [12] = tested on: VRE ATCC 700425 (vanC); experiment: MIC, broth microdilution; assay type: cell-based, enterococci; conditions: Enterococcus
# How it was run: as §1
# [13] = tested on: VRE ATCC 700802 (vanB); experiment: MIC, broth microdilution; assay type: cell-based, enterococci; conditions: Enterococcus
# How it was run: as §1
# [14] = target: T1, Orf2*; experiment: ITC binding affinity; conditions: ITC versus Orf2*
# Description: (§2) Isothermal Titration Calormetry (ITC) Analysis
# (§3) A stock solution (50 mM) was prepared by dissolving r6,GlcNAc pseudoaglycone (9) in 50% DMSO. The 1 mM protein solutions of Orf2*, Orf2*T and Dbv27 were prepared in a 50 mM HEPES buffer solution at pH 8.0. The solution (50 mM HEPES, pH8.0 and 10% DMSO) that contained compound 9 (1 mM) or S-adenosylmethionine (SAM) (1 mM) in a 40 μL injection syringe was titrated into the Orf2*, Orf2*T or Dbv27 (0.1 mM) protein solution, which was placed in the sample cell of a 200 μL volume. Each titration consisted of 16 injections of a 2 μL4 s^−1 duration in an interval of 150 seconds. Data analysis was performed by software.
# [15] = target: T2, Orf2*T (Actinoplanes teichomyceticus, UniProt A0A561VD00, F193Y/S98A/V121A); experiment: ITC binding affinity; conditions: ITC versus Orf2*T
# T2 sequence (A0A561VD00 with tags, fused parts or gaps S98A/V121A/F193Y): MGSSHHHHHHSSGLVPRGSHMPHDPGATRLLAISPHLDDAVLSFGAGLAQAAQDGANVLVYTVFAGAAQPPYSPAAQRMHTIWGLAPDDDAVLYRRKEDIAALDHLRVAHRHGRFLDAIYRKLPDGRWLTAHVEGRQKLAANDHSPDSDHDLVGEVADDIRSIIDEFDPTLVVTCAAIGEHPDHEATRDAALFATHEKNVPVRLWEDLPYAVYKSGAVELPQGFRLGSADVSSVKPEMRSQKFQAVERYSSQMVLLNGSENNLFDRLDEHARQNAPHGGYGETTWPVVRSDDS
# Description: as §2, §3
# T1 sequence (A0A561VD00 entry or part of it): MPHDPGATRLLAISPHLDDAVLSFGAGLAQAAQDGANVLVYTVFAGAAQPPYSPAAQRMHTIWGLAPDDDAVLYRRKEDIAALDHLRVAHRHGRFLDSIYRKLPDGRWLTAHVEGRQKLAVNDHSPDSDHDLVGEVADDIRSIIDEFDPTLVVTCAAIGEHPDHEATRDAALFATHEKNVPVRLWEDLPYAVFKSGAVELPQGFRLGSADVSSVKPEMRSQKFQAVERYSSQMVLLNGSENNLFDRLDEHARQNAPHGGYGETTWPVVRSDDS
Structure (SMILES),kcatKm^−1 [1],MIC [2],MIC [3],MIC [4],MIC [5],MIC [6],MIC [7],MIC [8],MIC [9],MIC [10],MIC [11],MIC [12],MIC [13],Kd [14],Kd [15]
"CC(=O)N[C@H]1[C@H](Oc2c3cc4cc2Oc2ccc(cc2Cl)[C@@H](O)[C@@H]2NC(=O)[C@H](NC(=O)[C@@H]4NC(=O)[C@H]4NC(=O)[C@@H](Cc5ccc(c(Cl)c5)O3)NC(=O)[C@H](N)c3ccc(O)c(c3)Oc3cc(O)cc4c3)c3ccc(O)c(c3)-c3c(O)cc(O)cc3[C@@H](C(=O)O)NC2=O)O[C@H](CO)[C@@H](O)[C@@H]1O [Compound 5, r4,GlcNAc Tei-pseudoaglycone]",377300 M⁻¹ s⁻¹,,,,,,,,,,,,,,
"CC(=O)N[C@H]1[C@H](O[C@@H]2c3ccc(c(Cl)c3)Oc3cc4cc(c3O)Oc3ccc(cc3Cl)C[C@H]3NC(=O)[C@H](N)c5ccc(O)c(c5)Oc5cc(O)cc(c5)[C@H](NC3=O)C(=O)N[C@H]4C(=O)N[C@H]3C(=O)N[C@@H]2C(=O)N[C@H](C(=O)O)c2cc(O)cc(O)c2-c2cc3ccc2O)O[C@H](CO)[C@@H](O)[C@@H]1O [Compound 9, r6,GlcNAc Tei-pseudoaglycone]",,0.25 mg/L,1 mg/L,0.5 mg/L,2 mg/L,0.25 mg/L,0.125 mg/L,0.125 mg/L,0.25 mg/L,2 mg/L,> 128 mg/L,4 mg/L,4 mg/L,1420 ± 1100 µM,125 ± 14 µM

# Reference: US11739122B2, “Glycopeptide antibiotic compounds, methods for producing the same, and uses thereof” (Academia Sinica, priority 2019, dated 2023)
